The text below walks through data of publication PMC12648864 (Biology of Sex Differences, 2025).

The conditions of data set [1]: cited from earlier work.
Details of data set [2]: method as in PMID 27169283. The conditions noted are these: ovariectomized rat, plasma; cited from earlier work.
A short description of a further data set: in vivo. The conditions noted are these: for AUC(0-t) / AUC(0-inf) / Cmax / Tmax / half-life: Sprague-Dawley, rat, plasma, po, 0.59 mg/kg. An excerpt: In detail, 6 intact 8-week-old male and female Sprague-Dawley (SD) rats, as well as 6 intact 5-week-old male and female SD rats were purchased from Changyang Xishan Breeding Farm (Beijing Changyang Xishan Breeding Farm, China). All rats were provided standard chow and freely-available drinking water. They were acclimatized for 1 week and fasted overnight before drug administration. The rats were divided into intact and GDX groups, with 6 males and 6 females in each group. In GDX group, testes were surgically removed from male rat at 5 weeks of age, while ovaries were excised from female rat. Following surgery, GDX rats were maintained for an additional […] before testing. All animals, both intact and GDX, were tested at 8 weeks of age.
Blood was collected from orbital vein into a centrifuge tube containing sodium heparin at following time points: 5, 10, 15, 30, and 45 min, as well as 1, 1.5, 2, 4, 6, 8, 12, 24, and 48 h. The collected blood was shaken well and centrifuged at 1500 g for 10 min to separate plasma, then stored at −20 ℃ until use. All experimental procedures were reviewed and approved by the Ethical Committee for Use of Laboratory Animals of the Shanxi Medical University (SYDL2025013).
In detail, 180 µL of plasma was pipetted into a tube, followed by the addition of 20 µL of internal standard (100 ng/mL ephedrine) and the mixture was vortexed for 5 s. Next, 1 mL of acetonitrile precipitation protein was added to this mixture, which was vortexed again for 20 s. Finally, the mixture was centrifuged at 13,000 g for 10 min and the supernatant was transferred to a clean tube. This supernatant was evaporated to dryness under a stream of nitrogen at 35 ℃, then reconstituted in 200 µL of a compound solution consisting of methanol and […] ammonium formate (containing 0.1% formic acid) in a 40:60 (v/v) ratio. The reconstituted supernatant was stored at −80 ℃ until use. Subsequently, the supernatant was passed through a 0.22 μm organic filter before analysis using 1260–6470 HPLC-tandem mass spectrometry (MS/MS).
The mobile phase consisted of A: water + […] ammonium formate + 0.1% formic acid, and B: methanol. The gradient elution program was as follows: 0–1 min, 20% B; 1–6.5 min, 20%−80% B; 6.5–7.5 min, 80% B; 7.5–8.5 min, 80%−20% B; 8.5–12 min, 20% B.
MS conditions: Detection was carried out using an Agilent Jet Stream electrospray ionization source in positive ion mode, operating in multiple reaction monitoring mode. The ion source temperature was 300 ℃, and the nebulizer temperature was 305 ℃. The gas flow rate was maintained at 11.0 L/min, with the capillary voltage of 4000 V.

Details of data set [3]: method as in PMID 38276513. The conditions noted are these: following gonadectomy; cited from earlier work.
Where [4] appears, read: female, GDX female rats, oral 0.59 mg/kg.
[5] abbreviates: female, intact female rats, oral 0.59 mg/kg.
[6] abbreviates: male, GDX male rats, oral 0.59 mg/kg.
[7] abbreviates: male, intact male rats, oral 0.59 mg/kg.

Where two headings read alike, the source gives them in different places.

As a reminder, the AUC is concentration integrated over time. With `COc1c([C@H]2[C@H](C(=O)Nc3ccnc(C(N)=O)c3)O[C@@](C)(C(F)(F)F)[C@H]2C)ccc(F)c1F` [VX-548], in data set [1] (female rats), the AUC is listed as 1505.8 ± 47.3 ng·h/mL and the clearance rate is given as 12.5 ± 0.8 mL/min/kg. In data set [1] (male rats), the AUC is on record as 253.8 ± 6.3 ng·h/mL and the clearance rate is 65.1 ± 1.7 mL/min/kg.
Consider `C[C@H]1O[C@@H](O[C@H]2[C@@H](O)C[C@H](O[C@H]3[C@@H](O)C[C@H](O[C@H]4CC[C@@]5(C)[C@H](CC[C@@H]6[C@@H]5C[C@@H](O)[C@]5(C)[C@@H](C7=CC(=O)OC7)CC[C@]65O)C4)O[C@@H]3C)O[C@@H]2C)C[C@H](O)[C@@H]1O` [digoxin], for which the “peak digoxin concentration after ovariectomy” value in data set [2] was “significantly lower”.
What is called AUC(0-t) is the area under the concentration-time curve up to a stated or last time point. As a reminder, the AUC(0-inf) is total exposure, with the tail of the curve extrapolated. The term Cmax denotes the highest concentration seen after dosing. Broadly, the Tmax is the time from dosing to the highest level. By half-life is commonly meant the time in which the quantity being followed falls by half. A higher half-life goes with slow decline. Consider `O=C1C[C@@H]2OCC=C3CN4CC[C@]56c7ccccc7N1[C@H]5[C@H]2[C@H]3C[C@H]46` [strychnine, Strychnine nitrate], for which the “delay of time to peak concentration, female later than male rats” value was found to be 0.6 h in the data set “in vivo” (GDX group, oral 0.59 mg/kg) and 0.05 h in the data set “in vivo” (intact group, oral 0.59 mg/kg). The “peak of plasma concentration in female rats relative to male rats” value amounted to 3.70 times in “in vivo” (GDX group, oral 0.59 mg/kg) and 3.49 times in “in vivo” (intact group, oral 0.59 mg/kg). The AUC(0-t) in “in vivo” (setting [4]) was 489 ± 40.6 ng·h/mL; in the data set “in vivo” (setting [5]), 409 ± 58.4 ng·h/mL; in “in vivo” (setting [6]), 152 ± 10.4 ng·h/mL; in the data set “in vivo” (setting [7]), 96.8 ± 24.9 ng·h/mL. Also, the AUC(0-inf) came out at 501 ± 43.5 ng·h/mL in the data set “in vivo” (setting [4]), 403 ± 57.7 ng·h/mL in the data set “in vivo” (setting [5]), 153 ± 10.3 ng·h/mL in “in vivo” (setting [6]) and 97 ± 24.7 ng·h/mL in “in vivo” (setting [7]). In addition, the Cmax came to 48.1 ± 4.06 ng/mL in the data set “in vivo” (setting [4]), 116 ± 2.7 ng/mL in the data set “in vivo” (setting [5]), 13 ± 0.6 ng/mL in “in vivo” (setting [6]) and 33.4 ± 2.01 ng/mL in the data set “in vivo” (setting [7]). In addition, the Tmax stood at 0.63 ± 0.14 h in “in vivo” (female), 1.6 ± 0.22 h in the data set “in vivo” (setting [4]), 0.58 ± 0.13 h in the data set “in vivo” (male) and 1 h in the data set “in vivo” (setting [6]). Further, the half-life in the data set “in vivo” (female, t1/2, GDX female rats, oral 0.59 mg/kg) is 9.06 ± 1.82 h; in the data set “in vivo” (female, t1/2, intact female rats, oral 0.59 mg/kg), 5.7 ± 2.6 h; in the data set “in vivo” (male, t1/2, GDX male rats, oral 0.59 mg/kg), 7.68 ± 0.94 h; in “in vivo” (male, t1/2, intact male rats, oral 0.59 mg/kg) it was 3.84 ± 1.48 h.
Turning to `NCCCC(=O)O` [γ-aminobutyric acid], in data set [3], the “area under the curve, testosterone-treated male rats versus female rats with similar treatment” value is recorded as “higher” and the “renal clearance, testosterone-treated male rats versus female rats with similar treatment” value is on record as “significantly lower”.
